Measured values: patent US20190343749A1, “PROTECTANTS” (Lincoln Manufacturing Inc., priority 2018, published 2019)

System: mixture of bacteria
Test: CTFA Preservative Challenge Test on a shampoo
Type: cell-based
Conditions: for Mixed Bacteria Day 7 Count / Mixed Bacteria Day 14 Count: shampoo containing the sample, initial count 4×10^6 cfu/mL; for kill reduction: shampoo, mixed bacteria
Experimental: The CTFA Preservative Challenge Test was performed on a shampoo containing the samples below against a mixture of bacteria having an initial count of 4×10^6 cfu/mL. The shampoos inoculated with bacteria were allowed to stand for 7 or 14 days. The samples were evaluated for surviving organisms on day 7 or day 14 for bacteria-innoculated shampoos.
E. Kull et al., “Mixtures of Quaternary Ammonium Compounds and Long-chain Fatty Acids as Antifungal Agents”, Applied Microbiology, 9:538-541 (1961). The synergism value (QA/Qa+QB/Qb) was determined. […] Qb is the concentration of pircotine olamine alone (in percent by weight) required to yield 100% retardation of the bacteria. When the value of (QA/Qa +QB/Qb) is less than one, the mixture is synergistic. Values for (QA/Qa+QB/Qb) of 1 and greater represent an additive effect and an antagonistic effect, respectively.

## Cc1cc(CC(C)CC(C)(C)C)n(O)c(=O)c1.NCCO (centres unmarked) [0.1% Piroctone olamine, piroctone olamine]
Percent by weight in shampoo, plate count <10 cfu/g after 14 days
  concentration alone required to yield 100% retardation of the bacteria (Qa, Qb): > 0.1%
Day 7
  Mixed Bacteria Day 7 Count: 1.2 × 10^5 cfu/mL
  kill reduction: (<97% kill reduction)
Day 14
  Mixed Bacteria Day 14 Count: 1.3 × 10^5 cfu/mL
  kill reduction: (<97% kill reduction)

## CCCCCCCCCCCCCCCC[n+]1ccccc1 [1% cetylpyridinium chloride, cetylpyridinium chloride]
Day 14
  Mixed Bacteria Day 14 Count: 7 × 10^3 cfu/mL

## COc1ccc(C(=O)[O-])cc1.[Na+] [1% sodium p-anisate, sodium p-anisate]
Day 7
  Mixed Bacteria Day 7 Count: 2.3 × 10^4 cfu/mL
  kill reduction: (<99% kill reduction)
